Results: PubChem BioAssay (NCI)
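Method: 48-hour compound exposure of cells in 96-well plates, five concentrations, linear interpolation of endpoints. GI50 = concentration required for 50% inhibition of growth. TGI is the concentration that stops growth completely.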

How the values were obtained:
Assay in all cases: NCI tumour cell line growth inhibition, 48 h
SK-OV-3 ovarian = test system: SK-OV-3 ovarian
SW-620 colon = test system: SW-620 colon
UACC-257 melanoma = test system: UACC-257 melanoma
786-0 renal = test system: 786-0 renal
SN12C renal = test system: SN12C renal
T-47D breast = test system: T-47D breast
MDA-MB-231 breast = test system: MDA-MB-231 breast
SNB-75 CNS = test system: SNB-75 CNS
U251 CNS = test system: U251 CNS
OVCAR-5 ovarian = test system: OVCAR-5 ovarian
HCT-116 colon = test system: HCT-116 colon
MALME-3M melanoma = test system: MALME-3M melanoma
OVCAR-8 ovarian = test system: OVCAR-8 ovarian
HCT-15 colon = test system: HCT-15 colon
IGROV1 ovarian = test system: IGROV1 ovarian
K-562 leukemia = test system: K-562 leukemia
NCI-H522 lung = test system: NCI-H522 lung
COLO 205 colon = test system: COLO 205 colon
DU-145 prostate = test system: DU-145 prostate
OVCAR-4 ovarian = test system: OVCAR-4 ovarian
RXF 393 renal = test system: RXF 393 renal
OVCAR-3 ovarian = test system: OVCAR-3 ovarian
SF-295 CNS = test system: SF-295 CNS
SR leukemia = test system: SR leukemia
LOX IMVI melanoma = test system: LOX IMVI melanoma
KM12 colon = test system: KM12 colon
HCC-2998 colon = test system: HCC-2998 colon
MDA-MB-435 = test system: MDA-MB-435
A549 NSCLC = test system: A549 NSCLC
UACC-62 melanoma = test system: UACC-62 melanoma
HS 578T breast = test system: HS 578T breast
UO-31 renal = test system: UO-31 renal
HOP-92 NSCLC = test system: HOP-92 NSCLC
NCI-H226 lung = test system: NCI-H226 lung
PC-3 prostate = test system: PC-3 prostate
NCI-H23 lung = test system: NCI-H23 lung
SF-268 CNS = test system: SF-268 CNS
SK-MEL-28 melanoma = test system: SK-MEL-28 melanoma
MOLT-4 leukemia = test system: MOLT-4 leukemia
HL-60(TB) leukemia = test system: HL-60(TB) leukemia
HOP-62 NSCLC = test system: HOP-62 NSCLC
CCRF-CEM leukemia = test system: CCRF-CEM leukemia
RPMI-8226 leukemia = test system: RPMI-8226 leukemia
SK-MEL-5 melanoma = test system: SK-MEL-5 melanoma
SNB-19 CNS = test system: SNB-19 CNS
NCI/ADR-RES ovarian = test system: NCI/ADR-RES ovarian
NCI-H460 lung = test system: NCI-H460 lung
EKVX NSCLC = test system: EKVX NSCLC
SF-539 CNS = test system: SF-539 CNS
A498 renal = test system: A498 renal
HT29 colon = test system: HT29 colon
M14 melanoma = test system: M14 melanoma
BT-549 breast = test system: BT-549 breast
SK-MEL-2 melanoma = test system: SK-MEL-2 melanoma
ACHN renal = test system: ACHN renal
TK-10 renal = test system: TK-10 renal
CAKI-1 renal = test system: CAKI-1 renal
MCF7 breast = test system: MCF7 breast

CCCn1cnc2c(c1=N)C(c1ccc(OC)cc1)c1sc3c(CC)cccc3c1O2 (stereo not given)
GI50 (SK-OV-3 ovarian): 818 nM | TGI (SK-OV-3 ovarian): 26.9 µM | GI50 (SW-620 colon): 515 nM | TGI (SW-620 colon): 14.8 µM | GI50 (UACC-257 melanoma): 15 µM | TGI (UACC-257 melanoma): > 100 µM | GI50 (786-0 renal): 534 nM | TGI (786-0 renal): 12.8 µM | GI50 (SN12C renal): 867 nM | TGI (SN12C renal): 7.6 µM | GI50 (T-47D breast): 518 nM | TGI (T-47D breast): > 49.2 µM | GI50 (MDA-MB-231 breast): 1360 nM | TGI (MDA-MB-231 breast): 13 µM | GI50 (SNB-75 CNS): 220 nM | TGI (SNB-75 CNS): 1090 nM | GI50 (U251 CNS): 438 nM | TGI (U251 CNS): 12.5 µM | GI50 (OVCAR-5 ovarian): 2590 nM | TGI (OVCAR-5 ovarian): 17.9 µM | GI50 (HCT-116 colon): 382 nM | TGI (HCT-116 colon): 4.77 µM | GI50 (MALME-3M melanoma): 726 nM | TGI (MALME-3M melanoma): 21.7 µM | GI50 (OVCAR-8 ovarian): 1010 nM | TGI (OVCAR-8 ovarian): 15.8 µM | GI50 (HCT-15 colon): 441 nM | TGI (HCT-15 colon): 6.21 µM | GI50 (IGROV1 ovarian): 612 nM | TGI (IGROV1 ovarian): 29.4 µM | GI50 (K-562 leukemia): 338 nM | TGI (K-562 leukemia): > 31.6 µM | GI50 (NCI-H522 lung): 346 nM | TGI (NCI-H522 lung): 4.94 µM | GI50 (COLO 205 colon): 844 nM | TGI (COLO 205 colon): 8.27 µM | GI50 (DU-145 prostate): 665 nM | TGI (DU-145 prostate): 13.7 µM | GI50 (OVCAR-4 ovarian): 1350 nM | TGI (OVCAR-4 ovarian): 23.5 µM | GI50 (RXF 393 renal): 272 nM | TGI (RXF 393 renal): 883 nM | GI50 (OVCAR-3 ovarian): 378 nM | TGI (OVCAR-3 ovarian): 2970 nM | GI50 (SF-295 CNS): 392 nM | TGI (SF-295 CNS): 7.24 µM | GI50 (SR leukemia): 319 nM | TGI (SR leukemia): 3.23 µM | GI50 (LOX IMVI melanoma): 685 nM | TGI (LOX IMVI melanoma): 5.43 µM | GI50 (KM12 colon): 445 nM | TGI (KM12 colon): 24.9 µM | GI50 (HCC-2998 colon): 1300 nM | TGI (HCC-2998 colon): 6.6 µM | GI50 (MDA-MB-435): 196 nM | TGI (MDA-MB-435): 479 nM | GI50 (A549 NSCLC): 827 nM | TGI (A549 NSCLC): 20.9 µM | GI50 (UACC-62 melanoma): 422 nM | TGI (UACC-62 melanoma): 19.1 µM | GI50 (HS 578T breast): 384 nM | TGI (HS 578T breast): 5.76 µM | GI50 (UO-31 renal): 714 nM | TGI (UO-31 renal): 29.9 µM | GI50 (HOP-92 NSCLC): 1190 nM | TGI (HOP-92 NSCLC): 11.2 µM | GI50 (NCI-H226 lung): 964 nM | TGI (NCI-H226 lung): 11.2 µM | GI50 (PC-3 prostate): 551 nM | TGI (PC-3 prostate): 16.9 µM | GI50 (NCI-H23 lung): 1270 nM | TGI (NCI-H23 lung): 18.1 µM | GI50 (SF-268 CNS): 702 nM | TGI (SF-268 CNS): 26.1 µM | GI50 (SK-MEL-28 melanoma): 2140 nM | TGI (SK-MEL-28 melanoma): 36.7 µM | GI50 (MOLT-4 leukemia): 505 nM | TGI (MOLT-4 leukemia): 5.78 µM | GI50 (HL-60(TB) leukemia): 279 nM | TGI (HL-60(TB) leukemia): 1030 nM | GI50 (HOP-62 NSCLC): 553 nM | TGI (HOP-62 NSCLC): 14.8 µM | GI50 (CCRF-CEM leukemia): 421 nM | GI50 (RPMI-8226 leukemia): 375 nM | TGI (RPMI-8226 leukemia): 2560 nM | GI50 (SK-MEL-5 melanoma): 578 nM | TGI (SK-MEL-5 melanoma): 7.28 µM | GI50 (SNB-19 CNS): 478 nM | TGI (SNB-19 CNS): 14.6 µM | GI50 (NCI/ADR-RES ovarian): 389 nM | TGI (NCI/ADR-RES ovarian): 10 µM | GI50 (NCI-H460 lung): 378 nM | TGI (NCI-H460 lung): 4.45 µM | GI50 (EKVX NSCLC): 941 nM | TGI (EKVX NSCLC): 20 µM | GI50 (SF-539 CNS): 334 nM | TGI (SF-539 CNS): 1400 nM | GI50 (A498 renal): 334 nM | TGI (A498 renal): 1410 nM | GI50 (HT29 colon): 512 nM | TGI (HT29 colon): 9.09 µM | GI50 (M14 melanoma): 389 nM | TGI (M14 melanoma): 6.18 µM | GI50 (BT-549 breast): 691 nM | TGI (BT-549 breast): 16 µM | GI50 (SK-MEL-2 melanoma): 608 nM | TGI (SK-MEL-2 melanoma): 14.7 µM | GI50 (ACHN renal): 725 nM | TGI (ACHN renal): 17.7 µM | GI50 (TK-10 renal): 5.13 µM | TGI (TK-10 renal): 32.4 µM | GI50 (CAKI-1 renal): 476 nM | TGI (CAKI-1 renal): 20.6 µM | GI50 (MCF7 breast): 345 nM | TGI (MCF7 breast): 11.6 µM
